For assay [1], the target named is T1, muscarinic receptor subtype 1 (M1) (Homo sapiens, UniProt P11229).
T1 sequence (P11229 1-460): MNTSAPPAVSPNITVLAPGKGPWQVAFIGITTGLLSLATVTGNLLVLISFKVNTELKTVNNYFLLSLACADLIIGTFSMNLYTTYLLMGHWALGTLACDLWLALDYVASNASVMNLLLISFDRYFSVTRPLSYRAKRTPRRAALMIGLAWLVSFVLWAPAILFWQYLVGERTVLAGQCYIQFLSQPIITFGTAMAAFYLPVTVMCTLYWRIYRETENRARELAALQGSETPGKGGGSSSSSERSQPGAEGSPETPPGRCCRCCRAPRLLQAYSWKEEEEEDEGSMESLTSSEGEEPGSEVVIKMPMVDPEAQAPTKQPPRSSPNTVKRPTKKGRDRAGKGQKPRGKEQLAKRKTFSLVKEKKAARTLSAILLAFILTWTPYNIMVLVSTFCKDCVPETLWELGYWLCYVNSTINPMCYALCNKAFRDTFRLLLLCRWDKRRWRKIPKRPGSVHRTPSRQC
Description: GPCR membrane microarray, labeled-ligand cocktail binding with or without telenzepine, M1 microspots. The following applies: 1 μM telenzepin; cocktail with 2 nM Cy3-B-telenzepine; FIG. 1B. From the text:
(§1) FIG. 1A and FIG. 1B are false-color fluorescence images of two membrane microarrays made using six different GPCR-membrane preparations (from left to right, they are HEK cell membrane as control, muscarinic receptor subtype 1 (M1), motilin receptor (MOTR), neurotensin receptor subtype 1 (NTR1), opioid receptor like subtype 1 (ORL1) and delta 2 opioid receptor (OP1)).
(§2) FIGS. 1A & 1B are false-color fluorescence image of a membrane microarray made using six different GPCR-membrane preparations. The images, in Cy5 to Cy3 ratio, are taken after the array is assayed with a binding buffered solution containing a mixture or cocktail solution of labeled ligands. […] FIGS. 1A and 1B are, respectively, in the absence and presence of 1 μM telenzepin. Before array fabrication, all receptor membranes obtained from commercial vendors are re-formulated using a standardized ink containing: ˜20 mM Tris-HCl, pH 7.4, ˜10 mM MgCl2, ˜10% sucrose, 5% glycerol, 0.5% BSA, total membrane proteins in the range of 1 to 3 mg/ml.

Assay [2] deals with MOTR, NTR1, ORL1, OP1 receptor microspots. Description: GPCR membrane microarray, labeled-ligand cocktail binding with or without telenzepine, other receptor microspots. The conditions noted are these: 1 μM telenzepin, FIG. 1B.
Text: as §1, §2

As for `Cc1scc2c1N(C(=O)CN1CCN(C)CC1)c1ccccc1NC2=O` [telenzepine], the “inhibition of labeled ligand binding to M1 microspots” value in assay [1] is reported as “specifically inhibits the binding of labeled ligand to M1 microspots”. For the same compound, the “inhibition of labeled ligand binding to other receptor microspots” value in assay [2] was “not any other receptor microspots”.

The record behind these values is US20070141641A1, “Compositions & methods for reformulating biological membranes for arrays” (priority 2003, published 2007).
